Results: PubChem BioAssay (NCI)
“And” between values parts separate entries of the source, which are not always exact repeats. Identical values can stand only once.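 Following 48 hours of exposure in 96-well plates, responses at five concentrations were used to interpolate endpoints linearly. At the GI50, growth is halved. Definition used: TGI = concentration required for complete inhibition of growth.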

Experiments:
Assay in all cases: inhibition of tumour cell growth, NCI panel, 48 h
[1] = test system: IGROV1 ovarian
[2] = test system: SN12C renal
[3] = test system: COLO 205 colon
[4] = test system: NCI-H226 lung
[5] = test system: M14 melanoma
[6] = test system: SK-MEL-2 melanoma
[7] = test system: HT29 colon
[8] = test system: UACC-62 melanoma
[9] = test system: NCI-H460 lung
[10] = test system: HCT-116 colon

CCCCCCCSc1nc2c(C(=O)OCC)ncn2c2ccccc12
TGI [1]: > 100 µM | TGI [2]: > 100 µM | TGI [3]: > 100 µM | TGI [4]: > 100 µM | TGI [5]: > 100 µM | TGI [6]: > 100 µM | TGI [7]: > 100 µM | TGI [8]: > 100 µM | TGI [9]: > 100 µM | TGI [10]: > 100 µM

O=NC1C(Cl)C2CC1C1C(Br)C(Br)CC21 (stereo unspecified)
TGI [1]: > 100 µM | TGI [2]: > 100 µM | TGI [3]: > 100 µM | TGI [4]: > 100 µM | TGI [5]: > 100 µM | TGI [6]: > 100 µM | TGI [7]: > 100 µM | TGI [8]: > 100 µM | TGI [9]: > 100 µM | TGI [10]: > 100 µM

CN1CCCCC1CCN1CCCCC1 (stereo unspecified)
TGI [1]: > 100 µM | TGI [2]: > 100 µM | TGI [3]: > 100 µM | TGI [4]: > 100 µM | TGI [5]: > 100 µM | TGI [6]: > 100 µM | TGI [7]: > 100 µM | TGI [8]: > 100 µM | TGI [9]: > 100 µM | TGI [10]: > 100 µM

C/C=C/[P+](c1ccccc1)(c1ccccc1)c1ccccc1
TGI [1]: 18.1 µM | TGI [2]: 16.5 µM | TGI [3]: 0.285 µM | TGI [4]: 41.4 µM | TGI [5]: 27.2 µM | TGI [6]: 29.1 µM | TGI [7]: 12.9 µM | TGI [8]: 19.2 µM | TGI [9]: 28.3 µM | TGI [10]: 20.6 µM

Cc1sc(Cc2ccccc2)nc1-c1ccc(N)cc1
TGI [1]: 89.8 µM | TGI [2]: 40.2 µM | TGI [3]: 56.2 µM | TGI [5]: 43.7 µM | TGI [6]: 37.7 µM | TGI [7]: 54.8 µM | TGI [8]: 37.8 µM | TGI [9]: 50.2 µM | TGI [10]: 40.7 µM

CCOC(=O)/C(Cl)=C(\C)Nc1nc2c(ccc3ccccc32)s1
TGI [1]: > 100 µM | TGI [2]: > 100 µM | TGI [3]: > 100 µM | TGI [4]: > 100 µM | TGI [5]: > 100 µM | TGI [6]: 60.1 µM | TGI [7]: > 100 µM | TGI [8]: > 100 µM | TGI [9]: 69.3 µM | TGI [10]: > 100 µM

CN(C)CCCNc1ccc2ncn3c4ccccc4c(=O)c1c23
TGI [1]: 33 µM | TGI [2]: > 100 µM | TGI [3]: 15 µM | TGI [4]: 25.9 µM | TGI [5]: 41.6 µM | TGI [6]: 26.8 µM | TGI [7]: 19.6 µM | TGI [8]: 34.7 µM | TGI [9]: 14.5 µM | TGI [10]: 15.1 µM

CC12CCC(C(=O)OC1=O)C(C)(C)O2 (stereo unspecified)
TGI [1]: > 100 µM | TGI [2]: > 100 µM | TGI [3]: > 100 µM | TGI [4]: > 100 µM | TGI [5]: > 100 µM | TGI [6]: > 100 µM | TGI [7]: > 100 µM | TGI [8]: > 100 µM | TGI [9]: > 100 µM | TGI [10]: > 100 µM

O=S(=O)(Sc1ccc(Cl)cc1)c1ccc(Cl)cc1
TGI [1]: 31.1 µM | TGI [2]: 25.4 µM | TGI [3]: 31.8 µM | TGI [4]: 30.9 µM | TGI [5]: 32.5 µM | TGI [6]: 14.5 µM | TGI [7]: 35 µM | TGI [8]: 31.4 µM | TGI [9]: 37.4 µM | TGI [10]: 28.6 µM

CC(=O)C(O)N1C(=O)C=CC1=O (stereo unspecified)
GI50 [8]: 7170 µM | TGI [9]: 25 µM and 34.8 µM and 33.1 µM

Cc1cc(NCc2cc(Nc3ccnc4cc(Cl)ccc34)ccc2F)nc(N2CCCC2)n1
GI50 [1]: 1.69 µM | TGI [1]: 4.2 µM | GI50 [7]: 0.877 µM | TGI [7]: 2.27 µM | GI50 [9]: 1.35 µM | TGI [9]: 2.96 µM

COc1ccc(N2C(=O)C3c4[nH]c5c(C)cccc5c4C4CCC(C(C)(C)C)CC4C3C2=O)cc1 (stereo unspecified)
TGI [1]: > 10 µM | TGI [2]: > 10 µM | TGI [3]: > 10 µM | TGI [4]: > 10 µM | TGI [5]: > 10 µM | TGI [6]: > 10 µM | TGI [7]: 5.86 µM | TGI [8]: > 10 µM | TGI [9]: 6.63 µM | TGI [10]: > 10 µM

N#CC(c1ccccc1)c1nc2ccc(=N)cc-2n(O)c1C(C#N)c1ccccc1 (stereo unspecified)
TGI [1]: > 100 µM | TGI [2]: > 100 µM | TGI [3]: > 100 µM | TGI [4]: > 100 µM | TGI [5]: > 100 µM | TGI [6]: > 100 µM | TGI [7]: > 100 µM | TGI [8]: > 100 µM | TGI [9]: > 100 µM | TGI [10]: > 100 µM

CN(C)CCNc1nc(-c2ccc3ccccc3c2)nc2nc[nH]c12
TGI [1]: 15.4 µM | TGI [2]: 26.3 µM | TGI [3]: 21.7 µM | TGI [4]: 16.6 µM | TGI [5]: 23.6 µM | TGI [6]: 28.1 µM | TGI [7]: 16.4 µM | TGI [8]: 22.9 µM | TGI [9]: 15.6 µM | TGI [10]: 24.6 µM

C[C@@H]1CC[C@H]2C(COCCOCC3=C(C(F)(F)F)O[C@@H]4O[C@@]5(C)CC[C@H]6[C@H](C)CC[C@@H]3[C@@]46OO5)=C(C(F)(F)F)O[C@@H]3O[C@@]4(C)CC[C@@H]1[C@]32OO4
GI50 [1]: > 21.1 µM | TGI [1]: > 100 µM | GI50 [2]: < 0.0448 µM | TGI [2]: > 100 µM | GI50 [3]: 0.0188 µM | TGI [3]: 1.64 µM | GI50 [4]: 0.102 µM | TGI [4]: > 100 µM | GI50 [5]: 0.557 µM | TGI [5]: > 100 µM | GI50 [6]: > 100 µM | TGI [6]: > 100 µM | GI50 [7]: < 0.0138 µM | TGI [7]: > 100 µM | GI50 [8]: 0.141 µM | TGI [8]: > 100 µM | GI50 [9]: < 0.0202 µM | TGI [9]: > 100 µM | GI50 [10]: 0.0243 µM | TGI [10]: > 100 µM

CC1=C2C(=O)c3ccccc3C(=O)[C@H]2[C@H]2CCO[C@H]2O1
TGI [1]: 31.1 µM | TGI [2]: 40.4 µM | TGI [3]: > 100 µM | TGI [4]: > 100 µM | TGI [5]: 40.2 µM | TGI [6]: 36.6 µM | TGI [7]: 95.2 µM | TGI [8]: 39.7 µM | TGI [9]: 45.1 µM | TGI [10]: 79 µM

Cc1ccc(Oc2ccc(C)cc2[N+](=O)[O-])cc1
TGI [1]: > 100 µM | TGI [2]: > 100 µM | TGI [3]: > 100 µM | TGI [4]: > 100 µM | TGI [5]: > 100 µM | TGI [6]: > 100 µM | TGI [7]: > 100 µM | TGI [8]: > 100 µM | TGI [9]: > 100 µM | TGI [10]: > 100 µM

O=c1oc2ccccc2c2c(=O)c3ccc(OC/C(=N/O)c4ccc(Cl)cc4)cc3oc12
TGI [1]: > 100 µM | TGI [2]: 51.2 µM | TGI [3]: 29.1 µM | TGI [4]: 36.2 µM | TGI [5]: 34 µM | TGI [6]: 24.1 µM | TGI [8]: 24.4 µM | TGI [9]: 33 µM | TGI [10]: 24 µM

Cc1ccc(S(=O)(=O)NCCSCCNS(=O)(=O)c2ccc(C)cc2)cc1
TGI [2]: > 100 µM | TGI [3]: > 100 µM | TGI [4]: > 100 µM | TGI [5]: > 100 µM | TGI [7]: > 100 µM | TGI [9]: > 100 µM | TGI [10]: > 100 µM

COc1ccc([C@@H]2ON(C)[C@H]3CN(C)C(=O)[C@@H]23)cc1
TGI [1]: > 100 µM | TGI [2]: > 100 µM | TGI [3]: > 100 µM | TGI [4]: > 100 µM | TGI [5]: > 100 µM | TGI [6]: > 100 µM | TGI [7]: > 100 µM | TGI [9]: > 100 µM | TGI [10]: > 100 µM

O=C1c2c(c3c4ccccc4[nH]c3c3ccc4ccccc4c23)C(=O)N1CCN1CCCCC1
GI50 [1]: 1.25 µM | TGI [1]: 4.29 µM | GI50 [2]: 0.447 µM | TGI [2]: 1.73 µM | GI50 [3]: 1.38 µM | TGI [3]: 8.28 µM | GI50 [4]: 1.23 µM | TGI [4]: 3.39 µM | GI50 [6]: 2.25 µM | TGI [6]: 5.36 µM | GI50 [7]: 1.72 µM | TGI [7]: 10.6 µM | GI50 [8]: 1.21 µM | TGI [8]: 2.59 µM | GI50 [9]: 0.25 µM | TGI [9]: 1.45 µM

Cc1c2cc[n+](CCN3CCCCC3)cc2c(C)c2c1[nH]c1ccc(O)cc12
GI50 [1]: 4.43 µM | TGI [1]: 38.1 µM and 30.4 µM | GI50 [2]: 0.16 µM | TGI [2]: 20.8 µM and 6.03 µM | GI50 [3]: 2.57 µM | TGI [3]: 27.5 µM and > 24.2 µM | GI50 [4]: 1.47 µM and 3.75 µM | TGI [4]: 55.1 µM and 32.7 µM | TGI [5]: 50.4 µM | GI50 [6]: 13.5 µM | TGI [6]: 35.5 µM and 36.3 µM | GI50 [7]: 4.67 µM | TGI [7]: 28 µM and 47.4 µM | GI50 [8]: 11.4 µM | TGI [8]: 36.7 µM and 31.2 µM | GI50 [9]: 0.523 µM | TGI [9]: 10 µM and > 32.8 µM | GI50 [10]: 4.75 µM | TGI [10]: 24.1 µM and 26.1 µM

CCCCCCNC(=O)c1cnc(Cl)cn1
TGI [1]: 22.8 µM | TGI [2]: 26 µM | TGI [3]: 40 µM | TGI [4]: 21.7 µM | TGI [5]: 26 µM | TGI [6]: 31 µM | TGI [7]: > 100 µM | TGI [8]: 33.4 µM | TGI [9]: 37.3 µM | TGI [10]: 30.7 µM

Cc1ccccc1N=Nc1ccc(N=Nc2c(O)ccc3ccccc23)c(C)c1
TGI [1]: > 100 µM | TGI [2]: > 100 µM | TGI [3]: > 100 µM | TGI [4]: > 100 µM | TGI [5]: > 100 µM | TGI [6]: > 100 µM | TGI [7]: > 100 µM | TGI [8]: > 100 µM | TGI [10]: > 100 µM

NC(N)=N/N=C/c1c(-c2ccccc2)nc2n1ccc1nc(-c3ccccc3)c(/C=N/N=C(N)N)n12
TGI [1]: 92.7 µM | TGI [2]: > 100 µM | TGI [3]: > 100 µM | TGI [4]: > 100 µM | TGI [5]: > 100 µM | TGI [6]: > 100 µM | TGI [7]: > 100 µM | TGI [8]: > 100 µM | TGI [9]: > 100 µM | TGI [10]: > 100 µM

O=c1ccc2cc(O)c(O)cc2o1
TGI [1]: > 100 µM | TGI [2]: > 100 µM | TGI [3]: > 100 µM | TGI [4]: > 100 µM | TGI [5]: > 100 µM | TGI [6]: > 100 µM | TGI [7]: > 100 µM | TGI [8]: > 100 µM | TGI [9]: > 100 µM | TGI [10]: > 100 µM
